# Marks after values point to notes of the source that are not given here.
# What was measured:
# [1] = test system: SD rats; assay: Oral glucose tolerance test (OGTT) in rats; single injection; 1 mg/kg; format: in vivo; details: for Blood Glucose AUC (mg/dL*min) Mean: 1 mg/Kg
# Procedure: (§1) Animals were divided into three groups—a normal control group, a test group and a third semaglutide group, with 4 animals in each group. The animals were fasted for 12 hours before initiation of OGTT. To the test group animals, the Compound 1 was injected subcutaneously at 1 mg/kg dose. To the semaglutide group, a dose of 1 mg/kg was injected subcutaneously. After 22 hrs, 166 hrs and 334 hrs of subcutaneous injection of test drug or semaglutide, blood glucose was measured with blood glucose meter (time 0 measurements). All the animals were then given 2 g/kg of glucose solution orally. Blood glucose was measured at 20, 40, 60, 90 and 120 minutes following glucose challenge. Body weight and food intake was recorded. Blood glucose data was analyzed using Two way ANOVA followed by Bonferroni posttests using PRISM (Graph Pad version 5.03). Data of Blood glucose AUC0-120 min, was analyzed using t test.
# as §1, with “animals,” for “animals, the”, “1, Compound 13 and Compound 16 were” for “1 was”, “compound” for “drug”
# [2] = Food intake and body weight recorded in the rat OGTT study; format: in vivo, rats; details: for Body Weight Change (%) Mean / Food Consumption (g) Mean: 1 mg/Kg
# Procedure: as §1
# as §1, with “animals,” for “animals, the”, “1, Compound 13 and Compound 16 were” for “1 was”, “compound” for “drug”
# [3] = test system: db/db type 2 diabetic mice; assay: Reduction of HbA1c in db/db type 2 diabetic mice after chronic treatment (27 day study); format: in vivo; details: db/db mice
# Procedure: This study was done in diabetic mouse model. The animals were divided into three treatment groups—a diabetic control group, a test group and a semaglutide treatment group. Compound 1 of the present disclosure was injected subcutaneously at 0.3 mg/kg dose once a day for 3 days (qd*3) followed by 0.1 mg/kg dose every alternate day for 7 doses (q2d*7) followed by 0.1 mg/kg dose once every four days for two dose cycles (q4d*2). The same dosage regimen was administered in semaglutide treatment group. Measurements of blood glucose levels and body weight were done daily. % HbA1c was measured on Day 0, day 7, day 14 and day 27 by column chromatography. Cumulative food intake was calculated on day 27. % HbA1C data was analyzed by two way ANOVA followed by Bonferroni's posttests using PRISM (Graph Pad version 5.03).
# [4] = test system: db/db mice (diabetic mouse model); assay: Separate db/db diabetic mouse study, q2d*15 up to day 28, recovery period day 29 to day 45; format: in vivo
# Procedure: The study was performed in similar manner as above on diabetic mouse model. The animals were divided into three treatment groups—a diabetic control group, a test group and a semaglutide treatment group. The representative compounds of the present disclosure, Compound 1, Compound 13 and Compound 16, were injected subcutaneously at 3.04 or 6.078 nM dose (every alternate day up to day 28 (q2d*15). The same dosage regimen was administered in semaglutide treatment group. Measurements of blood glucose levels and body weight were done daily. % HbA1c, Insulin was measured on Day 0, day 14 and day 29. Cumulative food intake and body weight change was calculated on day 14 and 29. % HbA1c, Insulin data was analyzed by two way ANOVA followed by Bonferroni's posttests using PRISM (Graph Pad version 5.03). Whereas Blood Glucose AUC, Body weight change and Cumulative food intake data was analyzed by one way ANOVA followed by Bonferroni's posttests using PRISM (Graph Pad version 5.03). From day 29 to day 45, animals were kept on recovery period during which no drug treatment was given. Blood Glucose and Body weight was measured during this period. On day 45, Body weight Changes, % HbA1c, Insulin was measured.
# [5] = rats, 1 mg/kg s.c. single injection, Day 2
# [6] = rats, 1 mg/kg s.c. single injection, Day 4
# [7] = recovery period, earlier dose 12.155 nM
# [8] = recovery study, day 45, earlier dose 12.155 nM
substance,measurement,setting,value
Semaglutide [reference compound],% Glucose Reduction (Blood Glucose AUC0-120 min),"[1]; OGTT, 1 mg/Kg dose, after 24 hrs",49.3%
same,Blood Glucose AUC (mg/dL*min) Mean,"[1]; OGTT, 22 hr, Exp. 1",5458.0 mg·min/dL
same,Blood Glucose AUC (mg/dL*min) Mean,"[1]; OGTT, 22 hr, Exp. 2",4258 mg·min/dL
same,Blood Glucose AUC (mg/dL*min) Mean,"[1]; OGTT, 168 hr, Exp. 1",12785.0 mg·min/dL
same,Blood Glucose AUC (mg/dL*min) Mean,"[1]; OGTT, 168 hr, Exp. 2",7410 mg·min/dL
same,Blood Glucose AUC (mg/dL*min) Mean,"[1]; OGTT, 336 hr, Exp. 1",16223.0 mg·min/dL
same,Blood Glucose AUC (mg/dL*min) Mean,"[1]; OGTT, 336 hr, Exp. 2",8023.0 mg·min/dL
same,reduction in blood glucose AUC,"[1]; after 168 hrs of injection, 1 mg/kg",about 25%
same,Body Weight Change (%) Mean,"[2]; 48 h, Exp. 1",−6.5%
same,Food Consumption (g) Mean,"[2]; 48 h, Exp. 1",17.5 g
same,Body Weight Change (%) Mean,"[2]; 48 h, Exp. 2",−8.7%
same,Food Consumption (g) Mean,"[2]; 48 h, Exp. 2",19.3 g
same,Body Weight Change (%) Mean,"[2]; 154 h, Exp. 1",4.5%
same,Food Consumption (g) Mean,"[2]; 154 h, Exp. 1",86.3 g
same,Body Weight Change (%) Mean,"[2]; 154 h, Exp. 2",0.2%
same,Food Consumption (g) Mean,"[2]; 154 h, Exp. 2",50.4 g
same,Body Weight Change (%) Mean,"[2]; 324 h, Exp. 1",11.8%
same,Food Consumption (g) Mean,"[2]; 324 h, Exp. 1",107.9 g
same,Body Weight Change (%) Mean,"[2]; 324 h, Exp. 2",3.8%
same,Food Consumption (g) Mean,"[2]; 324 h, Exp. 2",96.8 g
same,Body Weight (Day 2) % Change vs Baseline,[2]; [5],−7.65%
same,Body Weight (g) (Day 2) Mean,[2]; [5],428.1 g
same,Body Weight (Day 4) % Change vs Baseline,[2]; [6],−5.3%
same,Body Weight (g) (Day 4) Mean,[2]; [6],427.2 g
same,Food Consumption (g) (day 0 to day 2) Mean,"[2]; rats, 1 mg/kg s.c. single injection, day 0 to day 2",5.03*** g
same,Food Consumption (g) (day 0 to day 4) Mean,"[2]; rats, 1 mg/kg s.c. single injection, day 0 to day 4",55.73*** g
same,cumulative food intake vs diabetic control group,[3]; 0 to 27th day (FIG. 8),statistically significant reduction in food intake
same,% HbA1c Mean,[3]; Day 0 (before treatment),5.05%
same,% HbA1c % Change vs DC,"[3]; Day 27, vs Diabetic Control",−2.26%
same,% HbA1c Mean,"[3]; Day 27, s.c. 0.3 mg/kg qd*3, 0.1 mg/kg q2d*7, 0.1 mg/kg q4d*2",5.03*** %
same,% change in body weight,[3]; day 0 to day 27 (FIG. 9),−8%
same,Blood Glucose AUC (Day 0-29) % Change Vs Control,"[4]; 12.155 nM, q2d*15",−41.78%
same,Blood Glucose AUC (Day 0-29) (mg/dL*days) Mean,"[4]; 12.155 nM, q2d*15",9867.9*** mg/dL*days
same,"Body Weight Change Day 29, % Change vs Day 0 Mean","[4]; 12.155 nM, q2d*15",0.7%
same,Cumulative Food Intake (g) Day 0-29 Mean,"[4]; 12.155 nM, q2d*15",92.0 g
same,% HbA1C Mean,"[4]; Day 0, 12.15 nM, q2d*15",7.66%
same,Insulin (ng/mL) Mean,"[4]; Day 0, 12.15 nM, q2d*15",18.7 ng/mL
same,% HbA1C Mean,"[4]; Day 14, 12.15 nM, q2d*15",7.04%
same,Insulin (ng/mL) Mean,"[4]; Day 14, 12.15 nM, q2d*15",37.5 ng/mL
same,% HbA1C Mean,"[4]; Day 29, 12.15 nM, q2d*15",6.47 *** %
same,Insulin (ng/mL) Mean,"[4]; Day 29, 12.15 nM, q2d*15",48.1** ng/mL
same,Blood Glucose AUC (Day 30-37) % Change vs Control,[4]; [7],−15.58%
same,Blood Glucose AUC (Day 30-37) (mg/dL*days) Mean,[4]; [7],3032.0 mg·days/dL
same,Blood Glucose AUC (Day 38-45) % Change vs Control,[4]; [7],−5.16%
same,Blood Glucose AUC (Day 38-45) (mg/dL*days) Mean,[4]; [7],3415.7 mg·days/dL
same,% HbA1C Mean,[4]; [8],7.8%
same,Delta HbA1C vs. DC,[4]; [8],−0.7
same,Insulin (ng/mL) Mean,[4]; [8],19.7 ng/mL
same,Body Weight % Change vs Day 45 Mean,"[4]; recovery study, earlier dose 12.155 nM",9.5%

# Source: patent US11447535B2, “GLP-1 analogues” (Sun Pharmaceutical Industries Limited, priority 2018, dated 2022)
